Measured values taken from patent publication US20240218022A1, “ANTI-VISTA MACROCYCLIC PEPTIDES AND COMPOSITIONS” (BRISTOL-MYERS SQUIBB COMPANY, priority 2022, published 2024).
Starred links: 1 amine or outer side, 2 acyl side, 3 side chain; linkers in the order of their positions; H or OH if unused. Positions of bridges follow the written chain, without caps; N, C: chain ends. Non-standard residues stand in square brackets, D forms with d. Residues, ends and D or L forms follow the SMILES beside them. ξ: configuration not given here. γGlu = O=C(O)[C@H](CCC(=O)[*:2])N[*:1]; NMeIle(3ξ) = CCC(C)[C@H](NC)C(=O)O; Tic = O=C(O)[C@@H]1Cc2ccccc2CN1; Ahp(2) = CCCCC[C@H](N)C(=O)O; NMeNle = CCCC[C@H](NC)C(=O)O; Tle = CC(C)(C)[C@H](N)C(=O)O; NMeS = CN[C@@H](CO)C(=O)O; NHexGly = CCCCCCNCC(=O)O; NMeA = CN[C@@H](C)C(=O)O; Nle = CCCC[C@H](N)C(=O)O; Aun = NCCCCCCCCCCC(=O)O; AEEA = NCCOCCOCC(=O)O

Target: T1, mouse VISTA (mVISTA) (Mus musculus, UniProt Q9D659)
T1 construct: expressed in transfected cells; host or cells: Human embryonic kidney 293T cells
T1 sequence (Q9D659 33-308): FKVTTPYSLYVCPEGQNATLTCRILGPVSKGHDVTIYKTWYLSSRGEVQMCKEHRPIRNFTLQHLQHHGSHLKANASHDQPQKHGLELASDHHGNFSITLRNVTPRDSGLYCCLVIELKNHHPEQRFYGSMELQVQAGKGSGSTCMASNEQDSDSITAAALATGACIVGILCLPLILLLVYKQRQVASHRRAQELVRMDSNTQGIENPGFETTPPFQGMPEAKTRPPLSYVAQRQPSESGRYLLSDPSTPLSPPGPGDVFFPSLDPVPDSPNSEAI
Assay: Cell-Based Binding High-Content Assay For mVISTA (HC CBA mVISTA)
Settings: read-out: HC CBA mVISTA IC50
Outline: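 293T cells expressing mouse VISTA, with compounds added either after seeding ("no wash") or before seeding and then washed out after 1 h. Biotinylated peptide 2 nM for 30 min at room temperature, then detection with Alexa 647–streptavidin. After fixation with Hoechst stain, plates were high-content imaged; IC50 from four-parameter logistic fit.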

SMILES | IC50 [nM]
CCCCCCN1CC(=O)N[C@@H](Cc2ccc(O)cc2)C(=O)N[C@@H](CCCC)C(=O)N[C@@H](CC(N)=O)C(=O)N[C@@H](CCCNC(=N)N)C(=O)N[C@@H](CC(C)C)C(=O)N[C@@H](CCCCC)C(=O)N2CCC[C@H]2C(=O)N[C@@H](C(C)(C)C)C(=O)N[C@@H](CC(=O)O)C(=O)N[C@H](C(=O)NCCOCCOCC(=O)N[C@@H](CCC(=O)NCCOCCOCC(=O)NCCCCCCCCCCC(=O)O)C(=O)O)CSCC(=O)N[C@@H](Cc2ccccc2)C(=O)N[C@@H](Cc2ccc(O)cc2)C(=O)N[C@@H](CC(=O)O)C1=O [compound 2233] ({CH2CO}-FYD[NHexGly]Y[Nle]NRL[Ahp(2)]P[Tle]DC[AEEA][γGlu][AEEA][Aun]-OH; thioether N-14) | 29.1
CCCCCCN1CC(=O)N[C@@H](Cc2ccc(O)cc2)C(=O)N[C@@H](CCCC)C(=O)N[C@@H](CC(N)=O)C(=O)N[C@@H](CCCNC(=N)N)C(=O)N[C@@H](CC(C)C)C(=O)N[C@@H](CCCCC)C(=O)N2CCC[C@H]2C(=O)N[C@@H](C(C)(C)C)C(=O)N[C@@H](C(C)C)C(=O)N[C@H](C(=O)NCCOCCOCC(=O)N[C@@H](CCC(=O)NCCOCCOCC(=O)NCCCCCCCCCCC(=O)O)C(=O)O)CSCC(=O)N[C@@H](Cc2ccccc2)C(=O)N[C@@H](Cc2ccc(O)cc2)C(=O)N[C@@H](CC(=O)O)C1=O [compound 2234] ({CH2CO}-FYD[NHexGly]Y[Nle]NRL[Ahp(2)]P[Tle]VC[AEEA][γGlu][AEEA][Aun]-OH; thioether N-14) | 32.2
CCCCCCN1CC(=O)N[C@@H](Cc2ccc(O)cc2)C(=O)N[C@@H](CC(C)C)C(=O)N[C@@H](CC(N)=O)C(=O)N[C@@H](CCCNC(=N)N)C(=O)N[C@@H](CC(C)C)C(=O)N[C@@H](CCCCC)C(=O)N2CCC[C@H]2C(=O)N[C@@H](C(C)(C)C)C(=O)N[C@@H](CO)C(=O)N[C@H](C(=O)NCCOCCOCC(=O)N[C@@H](CCC(=O)NCCOCCOCC(=O)NCCCCCCCCCCC(=O)O)C(=O)O)CSCC(=O)N[C@@H](Cc2ccccc2)C(=O)N[C@@H](Cc2ccc(O)cc2)C(=O)N[C@@H](CC(=O)O)C1=O [compound 2235] ({CH2CO}-FYD[NHexGly]YLNRL[Ahp(2)]P[Tle]SC[AEEA][γGlu][AEEA][Aun]-OH; thioether N-14) | 15.1
CCCCCCN1CC(=O)N[C@@H](Cc2ccc(O)cc2)C(=O)N[C@@H](CC(C)C)C(=O)N[C@@H](CC(N)=O)C(=O)N[C@@H](CCCNC(=N)N)C(=O)N[C@@H](CC(C)C)C(=O)N[C@@H](CCCCC)C(=O)N2CCC[C@H]2C(=O)N[C@@H](C(C)(C)C)C(=O)N[C@@H](CC(=O)O)C(=O)N[C@H](C(=O)NCCOCCOCC(=O)N[C@@H](CCC(=O)NCCOCCOCC(=O)NCCCCCCCCCCC(=O)O)C(=O)O)CSCC(=O)N[C@@H](Cc2ccccc2)C(=O)N[C@@H](Cc2c[nH]c3ccccc23)C(=O)N[C@@H](CC(=O)O)C1=O [compound 2236] ({CH2CO}-FWD[NHexGly]YLNRL[Ahp(2)]P[Tle]DC[AEEA][γGlu][AEEA][Aun]-OH; thioether N-14) | 23.7
CCCCCCN1CC(=O)N[C@@H](Cc2ccc(O)cc2)C(=O)N[C@@H](CCCC)C(=O)N[C@@H](CC(N)=O)C(=O)N[C@@H](CCCNC(=N)N)C(=O)N[C@@H](CC(C)C)C(=O)N[C@@H](CCCCC)C(=O)N2CCC[C@H]2C(=O)N[C@@H](C(C)(C)C)C(=O)N[C@@H](CC(=O)O)C(=O)N[C@H](C(=O)NCCOCCOCC(=O)N[C@@H](CCC(=O)NCCOCCOCC(=O)NCCCCCCCCCCC(=O)O)C(=O)O)CSCC(=O)N[C@@H](Cc2ccccc2)C(=O)N[C@@H](Cc2c[nH]c3ccccc23)C(=O)N[C@@H](CC(=O)O)C1=O [compound 2237] ({CH2CO}-FWD[NHexGly]Y[Nle]NRL[Ahp(2)]P[Tle]DC[AEEA][γGlu][AEEA][Aun]-OH; thioether N-14) | 36.2
CCCCCCN1CC(=O)N[C@@H](Cc2ccc(O)cc2)C(=O)N[C@@H](CCCC)C(=O)N[C@@H](CC(N)=O)C(=O)N[C@@H](CCCNC(=N)N)C(=O)N[C@@H](CC(C)C)C(=O)N[C@@H](CCCCC)C(=O)N2CCC[C@H]2C(=O)N[C@@H](C(C)(C)C)C(=O)N[C@@H](CO)C(=O)N[C@H](C(=O)NCCOCCOCC(=O)N[C@@H](CCC(=O)NCCOCCOCC(=O)NCCCCCCCCCCC(=O)O)C(=O)O)CSCC(=O)N[C@@H](Cc2ccccc2)C(=O)N[C@@H](Cc2ccc(O)cc2)C(=O)N[C@@H](CC(=O)O)C1=O [compound 2238] ({CH2CO}-FYD[NHexGly]Y[Nle]NRL[Ahp(2)]P[Tle]SC[AEEA][γGlu][AEEA][Aun]-OH; thioether N-14) | 38
CCCCCCN1CC(=O)N[C@@H](Cc2ccc(O)cc2)C(=O)N[C@@H](CCCC)C(=O)N[C@@H](CC(N)=O)C(=O)N[C@@H](CCCNC(=N)N)C(=O)N(C)[C@@H](CCCC)C(=O)N[C@@H](CCCCC)C(=O)N2CCC[C@H]2C(=O)N[C@@H](C(C)(C)C)C(=O)N[C@@H](C(C)C)C(=O)N[C@H](C(=O)NCCOCCOCC(=O)N[C@@H](CCC(=O)NCCOCCOCC(=O)NCCCCCCCCCCC(=O)O)C(=O)O)CSCC(=O)N[C@@H](Cc2ccccc2)C(=O)N[C@@H](Cc2c[nH]c3ccccc23)C(=O)N[C@@H](CC(=O)O)C1=O [compound 2239] ({CH2CO}-FWD[NHexGly]Y[Nle]NR[NMeNle][Ahp(2)]P[Tle]VC[AEEA][γGlu][AEEA][Aun]-OH; thioether N-14) | 48.6
CCCCCCN1CC(=O)N[C@@H](Cc2ccc(O)cc2)C(=O)N[C@@H](CC(C)C)C(=O)N[C@@H](CC(N)=O)C(=O)N[C@@H](CCCNC(=N)N)C(=O)N[C@@H](CC(C)C)C(=O)N[C@@H](CCCCC)C(=O)N2CCC[C@H]2C(=O)N[C@@H](C(C)(C)C)C(=O)N[C@@H](C(C)C)C(=O)N[C@H](C(=O)NCCOCCOCC(=O)N[C@@H](CCC(=O)NCCOCCOCC(=O)NCCCCCCCCCCC(=O)O)C(=O)O)CSCC(=O)N[C@@H](Cc2ccccc2)C(=O)N[C@@H](Cc2ccc(O)cc2)C(=O)N[C@@H](CC(=O)O)C1=O [compound 2240] ({CH2CO}-FYD[NHexGly]YLNRL[Ahp(2)]P[Tle]VC[AEEA][γGlu][AEEA][Aun]-OH; thioether N-14) | 24.4
CCCCCCN1CC(=O)N[C@@H](Cc2ccc(O)cc2)C(=O)N[C@@H](CCCC)C(=O)N[C@@H](CC(N)=O)C(=O)N[C@@H](CCCNC(=N)N)C(=O)N[C@@H](CC(C)C)C(=O)N[C@@H](CCCCC)C(=O)N2CCC[C@H]2C(=O)N[C@@H](C(C)(C)C)C(=O)N[C@@H](CO)C(=O)N[C@H](C(=O)NCCOCCOCC(=O)N[C@@H](CCC(=O)NCCOCCOCC(=O)NCCCCCCCCCCC(=O)O)C(=O)O)CSCC(=O)N[C@@H](Cc2ccccc2)C(=O)N[C@@H](Cc2c[nH]c3ccccc23)C(=O)N[C@@H](CC(=O)O)C1=O [compound 2243] ({CH2CO}-FWD[NHexGly]Y[Nle]NRL[Ahp(2)]P[Tle]SC[AEEA][γGlu][AEEA][Aun]-OH; thioether N-14) | 38.9
CCCCCCN1CC(=O)N[C@@H](Cc2ccc(O)cc2)C(=O)N[C@@H](CCCC)C(=O)N[C@@H](CC(N)=O)C(=O)N[C@@H](CCCNC(=N)N)C(=O)N2Cc3ccccc3C[C@H]2C(=O)N[C@@H](CCCCC)C(=O)N2CCC[C@H]2C(=O)N[C@@H](C(C)(C)C)C(=O)N[C@@H](CO)C(=O)N[C@H](C(=O)NCCOCCOCC(=O)N[C@@H](CCC(=O)NCCOCCOCC(=O)NCCCCCCCCCCC(=O)O)C(=O)O)CSCC(=O)N[C@@H](Cc2ccccc2)C(=O)N[C@@H](Cc2c[nH]c3ccccc23)C(=O)N[C@@H](CC(=O)O)C1=O [compound 2244] ({CH2CO}-FWD[NHexGly]Y[Nle]NR[Tic][Ahp(2)]P[Tle]SC[AEEA][γGlu][AEEA][Aun]-OH; thioether N-14) | 32.2
CCCCCCN1CC(=O)N[C@@H](Cc2ccc(O)cc2)C(=O)N[C@@H](CCCC)C(=O)N[C@@H](CC(N)=O)C(=O)N[C@@H](CCCNC(=N)N)C(=O)N(C)[C@@H](CO)C(=O)N[C@@H](CCCCC)C(=O)N2CCC[C@H]2C(=O)N[C@@H](C(C)(C)C)C(=O)N[C@@H](CO)C(=O)N[C@H](C(=O)NCCOCCOCC(=O)N[C@@H](CCC(=O)NCCOCCOCC(=O)NCCCCCCCCCCC(=O)O)C(=O)O)CSCC(=O)N[C@@H](Cc2ccccc2)C(=O)N[C@@H](Cc2c[nH]c3ccccc23)C(=O)N[C@@H](CC(=O)O)C1=O [compound 2245] ({CH2CO}-FWD[NHexGly]Y[Nle]NR[NMeS][Ahp(2)]P[Tle]SC[AEEA][γGlu][AEEA][Aun]-OH; thioether N-14) | 27.8
CCCCCCN1CC(=O)N[C@@H](Cc2ccc(O)cc2)C(=O)N[C@@H](CCCC)C(=O)N[C@@H](CC(N)=O)C(=O)N[C@@H](CCCNC(=N)N)C(=O)N(C)[C@@H](C(C)CC)C(=O)N[C@@H](CCCCC)C(=O)N2CCC[C@H]2C(=O)N[C@@H](C(C)(C)C)C(=O)N[C@@H](CO)C(=O)N[C@H](C(=O)NCCOCCOCC(=O)N[C@@H](CCC(=O)NCCOCCOCC(=O)NCCCCCCCCCCC(=O)O)C(=O)O)CSCC(=O)N[C@@H](Cc2ccccc2)C(=O)N[C@@H](Cc2c[nH]c3ccccc23)C(=O)N[C@@H](CC(=O)O)C1=O (stereo partly shown) [compound 2246] ({CH2CO}-FWD[NHexGly]Y[Nle]NR[NMeIle(3ξ)][Ahp(2)]P[Tle]SC[AEEA][γGlu][AEEA][Aun]-OH; thioether N-14) | 47
CCCCCCN1CC(=O)N[C@@H](Cc2ccc(O)cc2)C(=O)N[C@@H](CCCC)C(=O)N[C@@H](CC(N)=O)C(=O)N[C@@H](CCCNC(=N)N)C(=O)N(C)[C@@H](C)C(=O)N[C@@H](CCCCC)C(=O)N2CCC[C@H]2C(=O)N[C@@H](C(C)(C)C)C(=O)N[C@@H](CO)C(=O)N[C@H](C(=O)NCCOCCOCC(=O)N[C@@H](CCC(=O)NCCOCCOCC(=O)NCCCCCCCCCCC(=O)O)C(=O)O)CSCC(=O)N[C@@H](Cc2ccccc2)C(=O)N[C@@H](Cc2c[nH]c3ccccc23)C(=O)N[C@@H](CC(=O)O)C1=O [compound 2247] ({CH2CO}-FWD[NHexGly]Y[Nle]NR[NMeA][Ahp(2)]P[Tle]SC[AEEA][γGlu][AEEA][Aun]-OH; thioether N-14) | 29.6
